Literature values in patent publication US20250067661A1, “SYSTEM FOR BODY FLUID ISOMER ANALYSIS” (KONINKLIJKE PHILIPS N.V., priority 2021, published 2025).

Conditions: intravenous solution containing a racemic mixture

Structure (SMILES)	maximum increase in plasma concentration [fold]
C[C@@H](O)C(=O)O [D-lactate]	≤ 13
C[C@H](O)C(=O)O [L-lactate]	≤ 2
